Key:
Type in all cases: in vivo
[1] = system: Spodoptera littoralis (Egyptian Cotton Leaf Worm); test: Activity against Spodoptera littoralis (Egyptian cotton leaf worm), sprayed cotton leaf discs; conditions: foliar, 72 h, application rate 200 ppm, five L1 larvae, 3 days after infestation, in comparison to untreated samples, read-out: control (at least one of mortality, anti-feedant effect, growth inhibition)
Procedure: Example B7: Activity Against Spodoptera littoralis (Egyptian Cotton Leaf Worm)
Cotton leaf discs were placed onto agar in 24-well microtiter plates and sprayed with aqueous test solutions prepared from 10′000 ppm DMSO stock solutions. After drying the leaf discs were infested with five L1 larvae. The samples were assessed for mortality, anti-feeding effect, and growth inhibition in comparison to untreated samples 3 days after infestation. Control of Spodoptera littoralis by a test sample is given when at least one of the categories mortality, anti-feedant effect, and growth inhibition is higher than the untreated sample.

[2] = system: Chilo suppressalis (Striped Rice Stemborer); test: Activity against Chilo suppressalis (striped rice stemborer), artificial diet in 24-well microtiter plates; conditions: 144 h, application rate 200 ppm, L2 larvae, 6 days after infestation, in comparison to untreated samples, read-out: control (at least one of mortality, anti-feedant effect, growth inhibition)
Procedure: Example B1: Activity Against Chilo suppressalis (Striped Rice Stemborer)
24-well microtiter plates with artificial diet were treated with aqueous test solutions prepared from 10′000 ppm DMSO stock solutions by pipetting. After drying, the plates were infested with L2 larvae (6-8 per well). The samples were assessed for mortality, anti-feeding effect, and growth inhibition in comparison to untreated samples 6 days after infestation. Control of Chilo suppressalis by a test sample is given when at least one of the categories mortality, anti-feedant effect, and growth inhibition is higher than the untreated sample.

[3] = system: Diabrotica Balteata (Corn Root Worm); test: Activity against Diabrotica balteata (corn root worm), sprayed maize sprouts on agar; conditions: 96 h, application rate 200 ppm, L2 larvae, 4 days after infestation, in comparison to untreated samples, read-out: effect in at least one of the two categories (mortality or growth inhibition)
Procedure: Example B2: Activity Against Diabrotica Balteata (Corn Root Worm)
Maize sprouts placed onto an agar layer in 24-well microtiter plates were treated with aqueous test solutions prepared from 10′000 ppm DMSO stock solutions by spraying. After drying, the plates were infested with L2 larvae (6 to 10 per well). The samples were assessed for mortality and growth inhibition in comparison to untreated samples 4 days after infestation.

[4] = system: Plutella xylostella (Diamond Back Moth); test: Activity against Plutella xylostella (diamond back moth), artificial diet in 24-well microtiter plates; conditions: 192 h, application rate 200 ppm, eggs, 8 days after infestation, in comparison to untreated samples, read-out: effect in at least one of the two categories (mortality or growth inhibition)
Procedure: Example B6: Activity Against Plutella xylostella (Diamond Back Moth)
24-well microtiter plates with artificial diet were treated with aqueous test solutions prepared from 10′000 ppm DMSO stock solutions by pipetting. After drying, Plutella eggs were pipetted through a plastic stencil onto a gel blotting paper and the plate was closed with it. The samples were assessed for mortality and growth inhibition in comparison to untreated samples 8 days after infestation. The following compounds gave an effect of at least 80% in at least one of the two categories (mortality or growth inhibition) at an application rate of 200 ppm: P2, P3, P4, P5, P7, P9, P10, P11, P13, P14, P15.

[5] = system: Euschistus heros (Neotropical Brown Stink Bug); test: Activity against Euschistus heros (neotropical brown stink bug), sprayed soybean leaves on agar; conditions: 120 h, application rate 200 ppm, N2 nymphs, 5 days after infestation, in comparison to untreated samples, read-out: effect in at least one of the two categories (mortality or growth inhibition)
Procedure: Example B3: Activity Against Euschistus heros (Neotropical Brown Stink Bug)
Soybean leaves on agar in 24-well microtiter plates were sprayed with aqueous test solutions prepared from 10′000 ppm DMSO stock solutions. After drying the leaves were infested with N2 nymphs. The samples were assessed for mortality and growth inhibition in comparison to untreated samples 5 days after infestation.

[6] = system: Myzus persicae (Green Peach Aphid); test: Activity against Myzus persicae (green peach aphid), feeding/contact activity, sunflower leaf discs; conditions: foliar, 144 h, application rate 200 ppm, aphid population of mixed ages, 6 days after infestation
Procedure: Example B4: Activity Against Myzus persicae (Green Peach Aphid) Feeding/Contact Activity
Sunflower leaf discs were placed onto agar in a 24-well microtiter plate and sprayed with aqueous test solutions prepared from 10′000 ppm DMSO stock solutions. After drying, the leaf discs were infested with an aphid population of mixed ages. The samples were assessed for mortality 6 days after infestation.

[7] = system: Myzus persicae (Green Peach Aphid); test: Activity against Myzus persicae (green peach aphid), systemic activity, pea seedling roots in test solution; conditions: 144 h, test rate 24 ppm, aphid population of mixed ages, 6 days after placing seedlings into test solutions
Procedure: Example B5: Activity Against Myzus persicae (Green Peach Aphid) Systemic Activity
Roots of pea seedlings infested with an aphid population of mixed ages were placed directly into aqueous test solutions prepared from 10′000 DMSO stock solutions. The samples were assessed for mortality 6 days after placing seedlings into test solutions.

CCS(=O)(=O)c1cc(-c2ccc(F)cc2)cnc1-c1coc2cc(C(F)(F)F)ccc2c1=O [P16, 3-[3-ethylsulfonyl-5-(4-fluorophenyl)-2-pyridyl]-7-(trifluoromethyl)chromen-4-one]
≥ 80%: percent control (mortality, anti-feedant effect or growth inhibition) at 200 ppm [1]

CCS(=O)(=O)c1cc(Br)cnc1-c1c(C)oc2cc(C(F)(F)F)ccc2c1=O [P8, 3-(5-bromo-3-ethylsulfonyl-2-pyridyl)-2-methyl-7-(trifluoromethyl) chromen-4-one]
≥ 80%: percent control (mortality, anti-feedant effect or growth inhibition) at 200 ppm [2] | percent control (mortality, anti-feedant effect or growth inhibition) at 200 ppm [1]

CCS(=O)(=O)c1cc(Br)cnc1-c1coc2cc(C(F)(F)F)ccc2c1=O [P9, 3-(5-bromo-3-ethylsulfonyl-2-pyridyl)-7-(trifluoromethyl)-chromen-4-one]
≥ 80%: percent control (mortality, anti-feedant effect or growth inhibition) at 200 ppm [2] | percent control (mortality or growth inhibition) at 200 ppm [3] | effect (mortality or growth inhibition) at 200 ppm [4] | percent control (mortality, anti-feedant effect or growth inhibition) at 200 ppm [1]

CCS(=O)(=O)c1cc(C(C)(C)C#N)cnc1-c1coc2cc(C(F)(F)F)ccc2c1=O [P5, 2-[5-ethylsulfonyl-6-[4-oxo-7-(trifluoromethyl)chromen-3-yl]-3-pyridyl]-2-methyl-propane-nitrile]
≥ 80%: percent control (mortality, anti-feedant effect or growth inhibition) at 200 ppm [2] | percent control (mortality or growth inhibition) at 200 ppm [3] | percent control (mortality or growth inhibition) at 200 ppm [5] | mortality at 200 ppm [6] | mortality at 24 ppm [7] | effect (mortality or growth inhibition) at 200 ppm [4] | percent control (mortality, anti-feedant effect or growth inhibition) at 200 ppm [1]

CCS(=O)(=O)c1cccnc1-c1coc2cc(C(F)(F)F)ccc2c1=O [P2, 3-(3-ethylsulfonyl-2-pyridyl)-7-(trifluoromethyl)chromen-4-one]
≥ 80%: percent control (mortality, anti-feedant effect or growth inhibition) at 200 ppm [2] | percent control (mortality or growth inhibition) at 200 ppm [3] | percent control (mortality or growth inhibition) at 200 ppm [5] | mortality at 200 ppm [6] | mortality at 24 ppm [7] | effect (mortality or growth inhibition) at 200 ppm [4] | percent control (mortality, anti-feedant effect or growth inhibition) at 200 ppm [1]

CCS(=O)(=O)c1cc(C2(C#N)CC2)cnc1-c1coc2cc(OC(F)(F)F)ccc2c1=O [P15, 1-[5-ethylsulfonyl-6-[4-oxo-7-(trifluoromethoxy)chromen-3-yl]-3-pyridyl]-cyclopropane-carbonitrile]
≥ 80%: percent control (mortality, anti-feedant effect or growth inhibition) at 200 ppm [2] | percent control (mortality or growth inhibition) at 200 ppm [3] | percent control (mortality or growth inhibition) at 200 ppm [5] | mortality at 200 ppm [6] | effect (mortality or growth inhibition) at 200 ppm [4] | percent control (mortality, anti-feedant effect or growth inhibition) at 200 ppm [1]

CCS(=O)(=O)c1cc(C2(C#N)CC2)cnc1-c1cn(C)c2cc(C(F)(F)F)ccc2c1=O [P14, 1-[5-ethylsulfonyl-6-[1-methyl-4-oxo-7-(trifluoromethyl)-3-quinolyl]-3-pyridyl]-cyclo-propanecarbonitrile]
≥ 80%: percent control (mortality, anti-feedant effect or growth inhibition) at 200 ppm [2] | percent control (mortality or growth inhibition) at 200 ppm [3] | percent control (mortality or growth inhibition) at 200 ppm [5] | mortality at 200 ppm [6] | mortality at 24 ppm [7] | effect (mortality or growth inhibition) at 200 ppm [4] | percent control (mortality, anti-feedant effect or growth inhibition) at 200 ppm [1]

CCS(=O)(=O)c1cc(C2(C#N)CC2)cnc1-c1coc2cc(OC(F)F)ccc2c1=O [P13, 1-[6-[7-(difluoromethoxy)-4-oxo-chromen-3-yl]-5-ethylsulfonyl-3-pyridyl]-cyclo-propanecarbonitrile]
≥ 80%: percent control (mortality, anti-feedant effect or growth inhibition) at 200 ppm [2] | percent control (mortality or growth inhibition) at 200 ppm [3] | percent control (mortality or growth inhibition) at 200 ppm [5] | mortality at 200 ppm [6] | mortality at 24 ppm [7] | effect (mortality or growth inhibition) at 200 ppm [4] | percent control (mortality, anti-feedant effect or growth inhibition) at 200 ppm [1]

CCS(=O)(=O)c1cc(C2(C#N)CC2)cnc1-c1c(C)oc2cc(C(F)(F)F)ccc2c1=O [P7, 1-[5-ethylsulfonyl-6-[2-methyl-4-oxo-7-(trifluoromethyl)chromen-3-yl]-3-pyridyl] cyclopropane-carbonitrile]
≥ 80%: percent control (mortality, anti-feedant effect or growth inhibition) at 200 ppm [2] | percent control (mortality or growth inhibition) at 200 ppm [3] | percent control (mortality or growth inhibition) at 200 ppm [5] | mortality at 200 ppm [6] | mortality at 24 ppm [7] | effect (mortality or growth inhibition) at 200 ppm [4] | percent control (mortality, anti-feedant effect or growth inhibition) at 200 ppm [1]

CCSc1cc(C2(C#N)CC2)cnc1-c1coc2cc(C(F)(F)F)ccc2c1=O [P3, 1-[5-ethylsulfanyl-6-[4-oxo-7-(trifluoromethyl)chromen-3-yl]-3-pyridyl]cyclopropane-carbonitrile]
≥ 80%: percent control (mortality or growth inhibition) at 200 ppm [3] | percent control (mortality or growth inhibition) at 200 ppm [5] | mortality at 200 ppm [6] | effect (mortality or growth inhibition) at 200 ppm [4] | percent control (mortality, anti-feedant effect or growth inhibition) at 200 ppm [1]

CCS(=O)(=O)c1ccc(C2CC2)nc1-c1coc2cc(C(F)(F)F)ccc2c1=O [P10, 3-(6-cyclopropyl-3-ethylsulfonyl-2-pyridyl)-7-(trifluoromethyl) chromen-4-one]
≥ 80%: percent control (mortality, anti-feedant effect or growth inhibition) at 200 ppm [2] | percent control (mortality or growth inhibition) at 200 ppm [3] | mortality at 200 ppm [6] | effect (mortality or growth inhibition) at 200 ppm [4] | percent control (mortality, anti-feedant effect or growth inhibition) at 200 ppm [1]

CCS(=O)(=O)c1cc(C2(C#N)CC2)cnc1-c1coc2cc(C(F)(F)F)ccc2c1=O [P4, 1-[5-ethylsulfonyl-6-[4-oxo-7-(trifluoromethyl)chromen-3-yl]-3-pyridyl]cyclopropane-carbonitrile]
≥ 80%: percent control (mortality, anti-feedant effect or growth inhibition) at 200 ppm [2] | percent control (mortality or growth inhibition) at 200 ppm [3] | percent control (mortality or growth inhibition) at 200 ppm [5] | mortality at 200 ppm [6] | mortality at 24 ppm [7] | effect (mortality or growth inhibition) at 200 ppm [4] | percent control (mortality, anti-feedant effect or growth inhibition) at 200 ppm [1]

CCS(=O)(=O)c1cc(C2CC2)cnc1-c1coc2cc(C(F)(F)F)ccc2c1=O [P11, 3-(5-cyclopropyl-3-ethylsulfonyl-2-pyridyl)-7-(trifluoromethyl) chromen-4-one]
≥ 80%: percent control (mortality, anti-feedant effect or growth inhibition) at 200 ppm [2] | percent control (mortality or growth inhibition) at 200 ppm [3] | percent control (mortality or growth inhibition) at 200 ppm [5] | mortality at 200 ppm [6] | mortality at 24 ppm [7] | effect (mortality or growth inhibition) at 200 ppm [4] | percent control (mortality, anti-feedant effect or growth inhibition) at 200 ppm [1]
